US20050096294A1, “Novel anti-coagulant” (priority 2003, published 2005)

What was measured:
Format in all cases: biochemical, human
[1] = test system: extrinsic pathway coagulation; test: Prothrombin time (PT); settings: for PT: standard control 12.6
Description: (5) Prothrombin Time (PT):
The present method is a method for inspecting dynamics of extrinsic pathway coagulation. The present method has sensitivity to qualitative and quantitative abnormality in the factor II (prothrombin), the factor V, the factor VII, the factor X and the factor I (fibrinogen), and it is scarcely influenced by the […] and the factor VIII. First, normal (normal volunteer) blood citrate-collected (collected in a plastic test tube charged with 3.13 wt % sodium citrate of 1/10 volume) was subjected to centrifugal separation at 3000 rpm for 10 minutes to obtain supernatant plasma. The PT time was obtained by mixing plasma for inspection with a PT reagent (a mixed solution of tissue thromboplastin and calcium chloride) to measure fibrin-depositing time (second) (using an automatic measuring apparatus). The sample of the sulfated polysaccharide was added to the plasma for inspection in an addition concentration of 0.001 to 1 mg/ml, and normal plasma was used for a standard control.

[2] = test system: intrinsic pathway coagulation; test: Activated partial thromboplastin time (APTT)
Description: (4) Activated Partial Thromboplastin Time (APTT):
The present method is a method for inspecting dynamics of intrinsic pathway coagulation. The present method has sensitivity to qualitative and quantitative abnormality in the factor XII, the factor XI, high molecular weight kininogen, prekallikrein, the factor IX, the factor VIII, the factor X, the factor V, the factor II (prothrombin) and the factor I (fibrinogen). First, normal (normal volunteer) blood citrate-collected (collected in a plastic test tube charged with 3.13 wt % sodium citrate of 1/10 volume) was subjected to centrifugal separation at 3000 rpm for 10 minutes to obtain supernatant plasma. The APTT time was obtained by mixing plasma for inspection with an APTT reagent and then measuring fibrin-depositing time (second) after adding a calcium chloride solution (using an automatic measuring apparatus). The sulfated polysaccharide was added to the plasma for inspection in an addition concentration of 0.001 to 1 mg/ml, and normal plasma was used for a standard control.

[3] = test system: blood immediately after collected from a normal person; test: Normal blood coagulation time; settings: for Normal blood coagulation time: standard control 42.5
Procedure: (3) Normal Blood Coagulation Time (Second):
The sulfated polysaccharide 50 μl was separately put (the concentration was adjusted so that the final concentration was a measured concentration) in advance into plastic test tubes (3.3 ml blood collected tube, manufactured by IWAKI Co., Ltd.), and each 1 ml of blood immediately after collected from a normal person was put into the test tubes containing the sulfated polysaccharide and quickly mixed, and the test tubes were repetitively inclined to measure time (second) in which the fluidity disappeared.

[4] = addition concentration 0.001 mg/ml in normal plasma
[5] = addition concentration 0.01 mg/ml in normal plasma
[6] = addition concentration 0.1 mg/ml in normal plasma
[7] = addition concentration 1 mg/ml in normal plasma
[8] = addition concentration 0.001 mg/ml in normal plasma, standard control 35
[9] = addition concentration 0.01 mg/ml in normal plasma, standard control 35
[10] = addition concentration 0.1 mg/ml in normal plasma, standard control 35
[11] = addition concentration 1 mg/ml in normal plasma, standard control 35 (30 in Example 1)
[12] = addition concentration 0.001 mg/ml
[13] = addition concentration 0.01 mg/ml
[14] = addition concentration 0.1 mg/ml

Row | Substance | PT [1, 4] | PT [1, 5] | PT [1, 6] | PT [1, 7] | APTT [2, 8] | APTT [2, 9] | APTT [2, 10] | APTT [2, 11] | Normal blood coagulation time [3, 12] | Normal blood coagulation time [3, 13] | Normal blood coagulation time [3, 14] | Normal blood coagulation time ([3]; addition concentration 1 mg/ml) | coagulation time of normal blood, extension (in words) ([3]; addition of 0.01 mg/ml) | coagulation time of normal blood, extension (in words) ([3]; 1 mg/ml added) | PT time, extension (in words) ([1]; gellan sulfate added to plasma, versus sample without gellan sulfate)
1 | gellan sulfate [Example 4] | 13 s | 12 s | 14 s | ≥ 300 s | 45 s | 45 s | ≥ 300 s | ≥ 300 s | 39.9 min | 72 min | ≥ 600 min | ≥ 600 min |  |  | 
2 | chondroitin sulfate [reference compound] |  |  |  |  |  |  |  |  |  |  |  |  | not observed at all to be extended |  | 
3 | heparin [reference compound] | 13 s | 13 s | ≥ 300 s | ≥ 300 s | 50 s | ≥ 300 s | ≥ 300 s | ≥ 300 s | 105.6 min | ≥ 600 min | ≥ 600 min | ≥ 600 min |  |  | 
4 | gellan sulfate [compound 1, reference compound] |  |  |  |  |  |  |  |  |  |  |  |  |  | not observed to be extended | 
5 | gellan sulfate [Example 3] | 11.3 s | 11.8 s | 19.3 s | ≥ 300 s | 49 s | 103.5 s | ≥ 300 s | ≥ 300 s | 58.9 min | 138.8 min | 216.3 min | ≥ 600 min |  |  | 
6 | gellan sulfate [Example 2] | 11.6 s | 11.7 s | 15.8 s | ≥ 300 s | 38.1 s | 30 s | ≥ 300 s | ≥ 300 s | 54 min | 93 min | 230 min | ≥ 600 min |  |  | 
7 | gellan sulfate [Example 1] |  |  |  |  |  |  |  | 95 s |  |  |  |  |  |  | significant extension of the time was not observed
